The values that follow come from PubChem BioAssay (NCI).

Common to all, as to test: NCI tumour cell line growth inhibition, 48 h
The subject of assay [1] is DLD-1 colon.
In assay [2] the test system is HCT-116 colon.
Assay [3] relates to HOP-92 NSCLC.
The subject of assay [4] is SK-MEL-28 melanoma.
Assay [5] concerns SR leukemia.
Assay [6] relates to TK-10 renal.
Assay [7] relates to U251 CNS.
The subject of assay [8] is MDA-MB-231 breast.
The subject of assay [9] is MDA-MB-435.
The test system of assay [10] is MDA-N.

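1) Cells in 96-well plates. 2) Compound, 48 h, 5 concentrations. 3) Linear interpolation between surrounding doses. 4) Unreached endpoint = highest concentration. TGI: concentration producing complete growth inhibition.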 A value given as a limit tells only on which side of the number the result lay.

In the case of `COc1ccc(/C=N/n2c(C)nc3c(sc(=S)n3-c3ccccc3)c2=O)cc1`, the TGI in assay [1], in [2], in [3], in [4], in assay [5] and in assay [6] was greater than 100 µM each time. The compound further returned a TGI in [7] greater than 100 µM.

With `CC(C)=CCC[C@@H](C)C1=C(O)C(N)=C(C)C(=O)C1=O`, the TGI in assay [2], in assay [3], in assay [8], in [9], in [10] and in assay [4] was greater than 100 µM throughout. For the same compound, the TGI in assay [5] was greater than 78.4 µM; in assay [6], greater than 100 µM; in assay [7], greater than 100 µM.

As to `CC(C)/C(Cl)=N/OC(=O)Nc1ccc(OC(F)(F)F)cc1`, the TGI in [2] came to 18 µM; in assay [3], 3.71 µM; in assay [8], 32.5 µM; in assay [9], 25.3 µM; in assay [10] it was 26.2 µM; in [4], 26.6 µM. The figures for the TGI in [5], in [6] and in assay [7] were 8.44 µM, 29.3 µM and 31.2 µM, respectively.

`Nc1nc(Nc2ccccc2)sc1C(=O)c1ccco1`: the TGI in [2] is 36.7 µM; in [3] it was 82.6 µM; in assay [8] it was 97.7 µM; in assay [9], 31.5 µM; in [10] it was 33.9 µM; in assay [4] it was 67.1 µM. The TGI was 25.2 µM in assay [5], 35.9 µM in assay [6] and greater than 100 µM in [7].

With `N#Cc1c(-c2ccccc2)c2c([nH]c1=O)-c1cc([N+](=O)[O-])ccc1CCC2`, the TGI in assay [2] was greater than 100 µM; in assay [3], 58.9 µM; in [8] it was greater than 100 µM; in [9] it was greater than 100 µM; in assay [10], greater than 100 µM; in assay [4], greater than 100 µM. The TGI in assay [5], in [6] and in [7] was greater than 100 µM in each case.

`O=C1OC(c2ccccc2)N(C(=O)c2ccccc2)C1Cc1ccc(OCc2ccccc2)cc1` (centres undefined): the TGI in assay [2] is greater than 100 µM; in assay [3] it was 53.4 µM; in [8], 23.9 µM; in assay [9], greater than 100 µM; in assay [10] it was greater than 100 µM; in [4] it was greater than 100 µM. Moreover, the TGI in assay [5], in assay [6] and in assay [7] was greater than 100 µM in each case.

`CC1(C)N=C2C(=O)c3c([nH]c4ccccc34)[C@]3(C)CCC1CC23` (some centres undefined): the TGI in assay [2], in assay [3], in [8], in [9], in assay [10] and in [4] was greater than 6.25 µM in each case. For the same compound, the TGI in [5], in assay [6] and in assay [7] was greater than 6.25 µM each time.

In the case of `CCOC(=O)c1ccc(Nc2nc3ccc(C(F)(F)F)cc3nc2C(=O)OCC)cc1`, the TGI in assay [2], in assay [3], in assay [8], in assay [9], in assay [10] and in assay [4] was greater than 100 µM each time. For the same compound, the TGI in [5], in [6] and in assay [7] was greater than 100 µM each time.

Regarding `CC(C)N1CN(c2ccccc2)C2(CCN(CCCC(=O)c3ccc(F)cc3)CC2)C1=O`, the TGI in assay [2] is 5.52 µM; in assay [3] it was 16.6 µM; in [8], 26.6 µM; in [9], 27.6 µM; in [10], 36.6 µM; in assay [4] it was 36.7 µM. Further, the TGI was 46.1 µM in assay [5], greater than 49.5 µM in [6] and greater than 100 µM in assay [7].

Regarding `COc1ccc(C2c3cc4c(cc3OC(NCCO)C2C)OCO4)cc1` (centres undefined), the TGI in [2] was found to be 31 µM; in [3], 86.1 µM; in assay [8] it was 63.3 µM; in assay [9], 59.7 µM; in [10], 63.7 µM; in assay [4], 69.1 µM. Besides, the TGI in assay [5] is 39.9 µM; in assay [6], 66.1 µM; in [7], 54.9 µM.

`O=C(CC(C(=O)c1ccco1)c1ccco1)c1ccco1` (centres undefined): the TGI in assay [2], in [3], in assay [8], in assay [9], in assay [10] and in assay [4] was greater than 100 µM throughout. The TGI in assay [5], in assay [6] and in [7] was greater than 100 µM throughout.

As to `Clc1ccc(/C(=C\c2ccccc2)Cn2ccnc2)cc1`, the TGI in assay [2] stood at 29.1 µM; in [3], 39.4 µM; in assay [8] it was 26.8 µM; in assay [9], 34.6 µM; in [10], 39 µM; in [4], 38.1 µM. In addition, the TGI was greater than 100 µM in [5], greater than 100 µM in assay [6] and 31.2 µM in assay [7].

Regarding `C[C@]12CC[C@@H]3c4ccc(O)cc4CC[C@H]3[C@@H]1C/C(=C\c1ccc(C#N)cc1)C2=O`, the TGI in [2] was greater than 100 µM; in assay [3], 89.1 µM; in assay [8], greater than 100 µM; in [9] it was 76.8 µM; in assay [10], greater than 100 µM; in [4], greater than 100 µM. Further, the TGI in assay [5], in [6] and in assay [7] was greater than 100 µM each time.

For `O=C(OCC1OC(n2nc(Cn3nnc(-c4cccnc4)n3)n(-c3cccc4ccccc34)c2=S)C(OC(=O)c2ccccc2)C1OC(=O)c1ccccc1)c1ccccc1` (centres undefined), the TGI in [2], in assay [3], in assay [8], in [9], in [10] and in [4] was greater than 100 µM each time. In addition, the TGI in assay [5], in [6] and in [7] was greater than 100 µM each time.
